Measurements taken from ChEMBL document CHEMBL1201862, “PubChem BioAssay data set” (2004).
Activity calls are given as the source filed them.

What was measured:
[1] = M. tuberculosis H37Rv growth inhibitors, H37Rv strain (AID 1626); assay type: functional
[2] = Trypanosoma cruzi growth suppression in host cells – NIH3T3 host cells, beta-gal luminescence, confirmation (AID 2044); assay type: functional, cell-based;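 also: intracellular parasites grown in NIH/3T3 mouse fibroblasts as host cells; luminescent beta-galactosidase reporter signal from transgenic T. cruzi replicating inside host cells; inhibitors lower the luminescence signal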
[3] = NIH3T3 cell viability loss – ATP luminescence, mouse fibroblasts, counter-screen, dose response (AID 2010); assay type: functional, cell-based;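 also: cells exposed to compound for about 90 hours before reading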
[4] = molecular target: T1, Short transient receptor potential channel 4 (Mus musculus, UniProt Q9QUQ5); assay: block of DAMGO-driven TRPC4 calcium entry – cell-based, HEK293 TRPC4/mu-opioid, Fluo-4 calcium, dose response (AID 434942); assay type: functional;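 also: potency of inhibitors blocking the TRPC4 calcium response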
T1 sequence (Q9QUQ5 whole entry): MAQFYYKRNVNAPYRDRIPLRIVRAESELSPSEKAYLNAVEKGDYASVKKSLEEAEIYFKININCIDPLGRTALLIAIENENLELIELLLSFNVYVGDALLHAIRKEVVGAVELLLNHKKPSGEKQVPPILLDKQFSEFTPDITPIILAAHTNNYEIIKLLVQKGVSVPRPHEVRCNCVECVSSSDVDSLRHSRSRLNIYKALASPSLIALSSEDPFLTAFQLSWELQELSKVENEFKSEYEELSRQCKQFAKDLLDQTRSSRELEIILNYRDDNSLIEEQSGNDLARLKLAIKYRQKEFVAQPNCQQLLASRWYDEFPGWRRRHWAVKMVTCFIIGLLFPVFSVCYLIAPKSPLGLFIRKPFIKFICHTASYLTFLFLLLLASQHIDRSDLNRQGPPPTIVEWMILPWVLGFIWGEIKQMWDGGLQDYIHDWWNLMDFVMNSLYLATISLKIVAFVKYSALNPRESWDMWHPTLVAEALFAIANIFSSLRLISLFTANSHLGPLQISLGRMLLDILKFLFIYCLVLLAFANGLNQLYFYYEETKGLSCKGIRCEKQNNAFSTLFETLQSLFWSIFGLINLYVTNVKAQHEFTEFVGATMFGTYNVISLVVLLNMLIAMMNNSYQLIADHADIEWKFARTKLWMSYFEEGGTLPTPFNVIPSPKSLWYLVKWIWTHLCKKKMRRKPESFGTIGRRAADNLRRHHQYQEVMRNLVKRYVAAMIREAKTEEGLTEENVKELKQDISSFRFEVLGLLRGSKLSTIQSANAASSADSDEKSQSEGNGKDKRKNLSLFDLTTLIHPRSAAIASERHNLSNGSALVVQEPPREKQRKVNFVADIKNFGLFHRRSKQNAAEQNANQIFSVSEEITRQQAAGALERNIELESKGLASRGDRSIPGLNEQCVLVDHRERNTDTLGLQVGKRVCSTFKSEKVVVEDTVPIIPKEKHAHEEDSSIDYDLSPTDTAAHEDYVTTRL

[5] = molecular target: T2, Microphthalmia-associated transcription factor (Homo sapiens, UniProt O75030); assay: reducers of TRPM1 reporter luminescence, concentration series – cell-based, SK-MEL-5, cherry-picked, set 3, MITF inhibitor project, dose response (AID 493073); assay type: functional;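 also: SK-MEL-5 melanoma cells with luciferase driven by the MITF target TRPM1 promoter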
T2 sequence (O75030 whole entry): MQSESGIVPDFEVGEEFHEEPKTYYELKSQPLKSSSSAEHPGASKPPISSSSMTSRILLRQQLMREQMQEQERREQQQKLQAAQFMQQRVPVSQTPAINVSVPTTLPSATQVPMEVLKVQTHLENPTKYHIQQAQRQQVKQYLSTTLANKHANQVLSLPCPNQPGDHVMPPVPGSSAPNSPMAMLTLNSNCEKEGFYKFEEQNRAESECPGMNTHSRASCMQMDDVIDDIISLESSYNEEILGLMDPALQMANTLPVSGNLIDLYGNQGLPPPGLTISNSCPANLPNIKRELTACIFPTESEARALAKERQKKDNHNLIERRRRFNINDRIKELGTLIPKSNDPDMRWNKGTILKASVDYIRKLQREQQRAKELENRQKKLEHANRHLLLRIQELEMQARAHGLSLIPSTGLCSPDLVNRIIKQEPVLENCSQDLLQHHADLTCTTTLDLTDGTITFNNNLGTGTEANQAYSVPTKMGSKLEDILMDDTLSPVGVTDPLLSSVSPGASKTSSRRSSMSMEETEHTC

[6] = molecular target: Protein-tyrosine kinase 2-beta (Homo sapiens, UniProt Q14289);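 also: potency of inhibitors of PYK2 kinase phosphorylation of poly-GT substrate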
Protein-tyrosine kinase 2-beta, sequence (Q14289 whole entry): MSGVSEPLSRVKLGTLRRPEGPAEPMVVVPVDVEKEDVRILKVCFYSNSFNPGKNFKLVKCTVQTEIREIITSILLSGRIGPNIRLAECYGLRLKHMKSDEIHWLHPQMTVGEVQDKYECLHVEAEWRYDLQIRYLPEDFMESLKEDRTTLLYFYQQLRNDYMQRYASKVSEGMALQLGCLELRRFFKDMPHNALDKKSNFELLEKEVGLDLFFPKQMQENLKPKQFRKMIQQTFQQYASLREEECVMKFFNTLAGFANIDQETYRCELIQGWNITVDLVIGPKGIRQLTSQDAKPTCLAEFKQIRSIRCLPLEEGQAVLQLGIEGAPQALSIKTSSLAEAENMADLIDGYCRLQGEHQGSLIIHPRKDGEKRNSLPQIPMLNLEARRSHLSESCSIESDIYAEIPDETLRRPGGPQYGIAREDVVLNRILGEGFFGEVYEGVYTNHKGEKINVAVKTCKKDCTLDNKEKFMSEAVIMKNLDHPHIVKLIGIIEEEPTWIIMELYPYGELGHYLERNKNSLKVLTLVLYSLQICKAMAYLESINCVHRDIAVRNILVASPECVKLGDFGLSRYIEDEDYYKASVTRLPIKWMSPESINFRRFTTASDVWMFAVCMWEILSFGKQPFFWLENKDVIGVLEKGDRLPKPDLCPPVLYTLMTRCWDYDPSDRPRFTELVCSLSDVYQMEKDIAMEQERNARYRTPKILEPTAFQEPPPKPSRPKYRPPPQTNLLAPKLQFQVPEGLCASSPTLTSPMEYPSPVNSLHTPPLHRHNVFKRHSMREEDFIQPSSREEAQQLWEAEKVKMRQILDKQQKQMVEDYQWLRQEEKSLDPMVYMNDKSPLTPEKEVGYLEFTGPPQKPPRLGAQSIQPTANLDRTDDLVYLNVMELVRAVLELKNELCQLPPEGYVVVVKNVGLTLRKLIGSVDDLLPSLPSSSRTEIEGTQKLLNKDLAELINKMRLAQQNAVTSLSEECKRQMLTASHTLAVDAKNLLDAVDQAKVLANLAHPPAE

[7] = HPDE-C7 pancreatic duct cell viability loss – fluorescence, HTS (AID 430); assay type: functional, cell-based; settings: Homo sapiens
[8] = viability loss of HPDE-C7K cells – cell-based, fluorescence, HTS, primary screen (AID 431); assay type: functional; settings: Homo sapiens
[9] = NIH-3T3 fibroblast cytotoxicity, dose response, cytotoxicity control, cell-based, fluorescence, Alamar Blue, secondary assay (AID 2327); assay type: functional;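 also: NIH-3T3 mouse fibroblasts cultured with fluconazole at 8 µg/mL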
[10] = fluconazole-exposed Candida albicans growth modulators – fluorescence, retest, confirmation (AID 2467); assay type: functional, cell-based
[11] = molecular target: T3, Serine/threonine-protein phosphatase (Candida dubliniensis (strain CD36 / CBS 7987 / NCPF 3949 / NRRLY-17841) (Yeast), UniProt B9W6M3); assay: blockers of CaCl2-induced CDRE-lacZ signaling – S. cerevisiae, luminescence, secondary, dose response (AID 2388); assay type: functional, cell-based;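 also: yeast reporter cells carrying a calcineurin-responsive lacZ construct stimulated with calcium chloride; luminescent beta-galactosidase reporter signal in whole cells rather than isolated phosphatase activity; potency for inhibition where a drop in reporter signal means calcineurin blockade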
T3 sequence (B9W6M3 whole entry): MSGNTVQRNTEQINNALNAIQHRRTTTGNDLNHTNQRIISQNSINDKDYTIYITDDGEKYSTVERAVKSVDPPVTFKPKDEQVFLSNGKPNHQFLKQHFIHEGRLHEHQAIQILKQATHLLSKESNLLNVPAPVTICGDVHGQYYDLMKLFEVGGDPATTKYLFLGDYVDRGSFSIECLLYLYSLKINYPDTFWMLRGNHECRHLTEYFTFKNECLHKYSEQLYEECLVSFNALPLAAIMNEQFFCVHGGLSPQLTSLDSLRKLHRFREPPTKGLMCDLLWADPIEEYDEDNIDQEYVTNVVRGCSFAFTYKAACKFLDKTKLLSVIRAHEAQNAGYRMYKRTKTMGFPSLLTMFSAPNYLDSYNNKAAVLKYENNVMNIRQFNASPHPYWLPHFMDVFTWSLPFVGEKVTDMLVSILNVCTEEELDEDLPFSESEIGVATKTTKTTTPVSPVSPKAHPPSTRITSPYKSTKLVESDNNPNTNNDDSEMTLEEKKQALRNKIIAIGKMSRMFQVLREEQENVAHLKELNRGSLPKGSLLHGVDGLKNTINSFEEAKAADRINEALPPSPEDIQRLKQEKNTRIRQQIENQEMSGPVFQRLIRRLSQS

INS1 = assay: INS-1E survival protection against cytokine death – cell-based, luminescence, retest, dose response (AID 449756); assay type: functional; settings: Rattus norvegicus;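 also: cell death triggered by IL-1 beta plus TNF-alpha plus IFN-gamma mixture; protective hits raise ATP signal compared with cytokine alone wells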
[12] = molecular target: ATP-dependent molecular chaperone HSP82 (Candida albicans (strain WO-1) (Yeast), UniProt C4YTQ8); assay: steroid-induced GRE reporter decrease in yeast – S. cerevisiae, luminescence, Hsp90 inhibitor project, dose response (AID 2400); assay type: functional, cell-based;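 also: beta-galactosidase luminescence from glucocorticoid response element reporter as proxy for Hsp90 function; inhibitor potency where signal loss means Hsp90 inhibition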
ATP-dependent molecular chaperone HSP82, sequence (C4YTQ8 whole entry): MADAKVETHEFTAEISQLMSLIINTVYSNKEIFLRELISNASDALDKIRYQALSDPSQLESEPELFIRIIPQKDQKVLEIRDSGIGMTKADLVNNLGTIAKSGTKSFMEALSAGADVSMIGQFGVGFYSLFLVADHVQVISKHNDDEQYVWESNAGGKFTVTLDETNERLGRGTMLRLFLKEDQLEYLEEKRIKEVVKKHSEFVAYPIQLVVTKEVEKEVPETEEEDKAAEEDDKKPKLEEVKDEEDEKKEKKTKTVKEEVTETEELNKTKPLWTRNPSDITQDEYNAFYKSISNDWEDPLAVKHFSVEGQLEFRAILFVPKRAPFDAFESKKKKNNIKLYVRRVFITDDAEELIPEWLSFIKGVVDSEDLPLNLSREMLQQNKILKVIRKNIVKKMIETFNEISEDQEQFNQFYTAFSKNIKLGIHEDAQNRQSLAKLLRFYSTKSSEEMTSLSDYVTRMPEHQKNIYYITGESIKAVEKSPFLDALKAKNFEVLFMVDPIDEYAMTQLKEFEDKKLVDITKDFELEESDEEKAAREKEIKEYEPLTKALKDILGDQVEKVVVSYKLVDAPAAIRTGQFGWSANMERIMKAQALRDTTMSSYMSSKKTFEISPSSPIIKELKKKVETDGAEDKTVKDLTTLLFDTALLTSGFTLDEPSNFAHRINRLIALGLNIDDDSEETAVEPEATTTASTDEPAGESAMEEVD

[13] = general mammalian cell viability loss – inhibitor set, cherry-pick, set 2, cytotoxicity control for miR-122 modulator project, dose response (AID 720697); assay type: functional, cell-based
[14] = general mammalian cell viability loss – activator set, cherry-pick, cytotoxicity control for miR-122 modulator project, dose response (AID 720690); assay type: functional, cell-based;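 also: HEK293T human cells scored for general mammalian cytotoxicity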
Estrogen receptor beta = Estrogen receptor beta (Homo sapiens, UniProt Q92731); assay: blockers of SRC-3 recruitment to ERβ – biochemical, ELISA, streptavidin-HRP readout, orthogonal assay, confirmation (AID 1060)
Estrogen receptor beta, sequence (Q92731 whole entry): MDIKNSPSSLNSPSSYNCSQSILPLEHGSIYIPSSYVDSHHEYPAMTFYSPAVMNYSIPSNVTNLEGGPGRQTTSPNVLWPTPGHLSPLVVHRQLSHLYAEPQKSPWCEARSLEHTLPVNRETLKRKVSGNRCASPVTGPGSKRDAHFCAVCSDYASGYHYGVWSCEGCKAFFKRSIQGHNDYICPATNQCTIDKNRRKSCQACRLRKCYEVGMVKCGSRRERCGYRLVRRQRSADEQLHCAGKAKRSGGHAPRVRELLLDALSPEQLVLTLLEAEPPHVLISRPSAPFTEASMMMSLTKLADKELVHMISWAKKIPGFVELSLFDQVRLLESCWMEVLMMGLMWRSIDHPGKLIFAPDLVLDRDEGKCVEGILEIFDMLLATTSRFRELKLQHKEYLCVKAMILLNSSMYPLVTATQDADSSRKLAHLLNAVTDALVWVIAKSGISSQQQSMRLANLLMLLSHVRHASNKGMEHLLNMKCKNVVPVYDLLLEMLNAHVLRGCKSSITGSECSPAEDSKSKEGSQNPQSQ

[15] = molecular target: T4, Rac GTPase-activating protein 1 (Homo sapiens, UniProt Q9H0H5); assay: blockers of MgcRacGAP-driven Rac1 GTP hydrolysis – biochemical, ADP Hunter fluorescence, primary and confirmatory, confirmation (AID 624330); assay type: functional
T4 sequence (Q9H0H5 whole entry): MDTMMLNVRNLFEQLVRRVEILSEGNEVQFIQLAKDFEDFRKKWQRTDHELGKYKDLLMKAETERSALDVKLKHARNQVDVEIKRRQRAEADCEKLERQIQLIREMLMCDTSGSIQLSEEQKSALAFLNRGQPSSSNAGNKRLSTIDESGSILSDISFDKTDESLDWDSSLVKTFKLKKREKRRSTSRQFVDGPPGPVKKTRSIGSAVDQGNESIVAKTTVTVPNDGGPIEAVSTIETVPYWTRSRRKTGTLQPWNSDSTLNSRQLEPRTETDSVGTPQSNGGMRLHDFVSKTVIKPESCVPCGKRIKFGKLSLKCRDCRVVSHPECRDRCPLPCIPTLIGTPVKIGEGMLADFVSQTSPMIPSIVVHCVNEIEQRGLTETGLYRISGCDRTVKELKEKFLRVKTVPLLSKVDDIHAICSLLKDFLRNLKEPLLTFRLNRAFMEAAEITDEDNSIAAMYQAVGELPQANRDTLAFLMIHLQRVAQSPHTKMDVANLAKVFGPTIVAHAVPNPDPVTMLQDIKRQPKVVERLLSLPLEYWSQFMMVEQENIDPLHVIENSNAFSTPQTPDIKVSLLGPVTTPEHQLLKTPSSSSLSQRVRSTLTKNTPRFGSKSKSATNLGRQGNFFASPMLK

[16] = molecular target: T5, Calpain-2 catalytic subunit (Sus scrofa, UniProt P43367); assay: m-calpain protease blockers, concentration series – biochemical, fluorogenic peptide substrate, dose response (AID 1420); assay type: functional
T5 sequence (P43367 whole entry): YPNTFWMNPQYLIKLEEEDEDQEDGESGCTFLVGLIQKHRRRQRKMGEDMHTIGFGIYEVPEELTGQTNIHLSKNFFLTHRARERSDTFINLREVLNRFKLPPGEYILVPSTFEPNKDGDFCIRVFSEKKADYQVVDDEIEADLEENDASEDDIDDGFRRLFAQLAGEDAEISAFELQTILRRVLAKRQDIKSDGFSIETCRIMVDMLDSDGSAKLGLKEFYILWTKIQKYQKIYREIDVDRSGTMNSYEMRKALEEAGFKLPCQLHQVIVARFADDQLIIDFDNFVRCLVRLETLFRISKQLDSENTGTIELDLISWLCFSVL

[17] = molecular target: Voltage-gated inwardly rectifying potassium channel KCNH2 (Homo sapiens, UniProt Q12809); assay: concentration-dependent hERG rescue from blockers – cell-based, thallium flux, dose response (AID 2121); assay type: ADME
Voltage-gated inwardly rectifying potassium channel KCNH2, sequence (Q12809 whole entry): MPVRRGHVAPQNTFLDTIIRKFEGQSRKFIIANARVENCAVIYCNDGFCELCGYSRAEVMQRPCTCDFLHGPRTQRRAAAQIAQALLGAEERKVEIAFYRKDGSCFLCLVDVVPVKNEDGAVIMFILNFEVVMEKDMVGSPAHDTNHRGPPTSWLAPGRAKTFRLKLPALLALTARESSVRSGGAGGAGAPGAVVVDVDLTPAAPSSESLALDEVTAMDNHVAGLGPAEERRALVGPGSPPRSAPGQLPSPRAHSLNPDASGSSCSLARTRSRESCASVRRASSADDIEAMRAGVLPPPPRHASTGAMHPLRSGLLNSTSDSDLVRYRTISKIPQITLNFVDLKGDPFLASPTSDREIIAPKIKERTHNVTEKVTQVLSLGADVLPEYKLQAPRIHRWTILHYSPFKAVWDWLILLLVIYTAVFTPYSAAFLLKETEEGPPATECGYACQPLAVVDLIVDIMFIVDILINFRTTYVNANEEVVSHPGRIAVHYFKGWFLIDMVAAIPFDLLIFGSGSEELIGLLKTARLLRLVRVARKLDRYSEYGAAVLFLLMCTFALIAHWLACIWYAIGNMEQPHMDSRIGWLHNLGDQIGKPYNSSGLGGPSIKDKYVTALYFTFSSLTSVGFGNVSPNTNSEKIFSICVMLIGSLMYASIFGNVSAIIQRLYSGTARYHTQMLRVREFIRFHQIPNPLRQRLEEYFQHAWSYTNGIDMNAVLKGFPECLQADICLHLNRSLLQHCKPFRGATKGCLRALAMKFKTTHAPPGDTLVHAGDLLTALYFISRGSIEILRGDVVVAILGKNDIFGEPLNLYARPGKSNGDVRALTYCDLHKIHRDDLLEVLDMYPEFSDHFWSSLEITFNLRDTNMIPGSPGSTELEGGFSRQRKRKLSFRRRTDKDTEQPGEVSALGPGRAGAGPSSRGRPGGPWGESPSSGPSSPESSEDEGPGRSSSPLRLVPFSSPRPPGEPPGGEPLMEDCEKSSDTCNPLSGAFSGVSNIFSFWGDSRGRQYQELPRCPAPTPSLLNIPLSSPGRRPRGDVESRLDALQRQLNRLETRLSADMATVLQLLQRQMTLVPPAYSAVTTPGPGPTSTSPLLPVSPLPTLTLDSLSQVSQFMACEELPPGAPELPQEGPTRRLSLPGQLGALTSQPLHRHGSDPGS

[18] = Luminescence Cell-Based Dose Retest to Confirm Inhibitors of Cancer Stem Cells. [Related pubchem assays (depositor defined):AID2717, AID2721]; assay type: functional, Homo sapiens; settings: Homo sapiens
Nonstructural protein 1 = Nonstructural protein 1 (Influenza A virus, UniProt Q194T2); assay type: functional, Influenza A virus (A/California/07/2009(H1N1))
Nonstructural protein 1, sequence (Q194T2 whole entry): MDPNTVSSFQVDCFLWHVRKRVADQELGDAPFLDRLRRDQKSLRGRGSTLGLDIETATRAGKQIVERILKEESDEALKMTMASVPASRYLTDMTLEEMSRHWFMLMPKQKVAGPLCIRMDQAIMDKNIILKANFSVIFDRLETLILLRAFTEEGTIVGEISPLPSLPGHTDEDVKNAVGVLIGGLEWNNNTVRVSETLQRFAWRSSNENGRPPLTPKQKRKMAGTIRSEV

Protein skinhead-1 = molecular target: T6, Protein skinhead-1 (Caenorhabditis elegans, UniProt P34707); assay type: functional
T6 sequence (P34707 whole entry): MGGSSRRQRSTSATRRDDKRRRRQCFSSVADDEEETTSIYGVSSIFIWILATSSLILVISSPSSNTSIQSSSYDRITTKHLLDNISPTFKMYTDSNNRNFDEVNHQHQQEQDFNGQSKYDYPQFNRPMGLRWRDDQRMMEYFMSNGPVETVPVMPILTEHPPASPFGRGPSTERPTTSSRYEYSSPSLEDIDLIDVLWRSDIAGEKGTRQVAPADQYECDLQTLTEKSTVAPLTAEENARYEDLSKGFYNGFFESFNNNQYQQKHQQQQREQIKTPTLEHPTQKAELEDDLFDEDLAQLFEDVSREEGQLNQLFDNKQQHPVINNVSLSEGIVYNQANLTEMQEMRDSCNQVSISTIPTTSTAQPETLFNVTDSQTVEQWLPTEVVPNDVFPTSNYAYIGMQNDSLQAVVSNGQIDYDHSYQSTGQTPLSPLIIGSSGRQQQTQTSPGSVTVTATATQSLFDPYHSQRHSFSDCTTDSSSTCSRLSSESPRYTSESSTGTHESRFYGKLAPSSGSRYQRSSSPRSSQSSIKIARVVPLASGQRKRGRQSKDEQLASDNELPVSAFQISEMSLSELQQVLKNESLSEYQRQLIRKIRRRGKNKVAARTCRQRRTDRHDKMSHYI

## CCOC(=O)CNC(=O)CSc1ncnc2c1nnn2-c1ccc(F)cc1
[1]
  IC50: > 100 µM (active)

## Cc1ccc(-c2c[n+](Cc3cccc(Cl)c3)c3n2CCC3)cc1
[2]
  EC50: < 0.1 µM (active)
[3]
  EC50: > 30 µM (not active)
[4]
  EC50: 1.33 µM (active)
[5]
  AC50: 12.2 µM (active)
cells
  EC50: 0.025 µM (active)

## N#C/C(=C/c1ccc(-c2ccc(Br)cc2)o1)C(=O)NC1CCCCC1
[1]
  IC50: > 100 µM (active)

## Cc1nn2c(c1-c1ccccc1)N=C1CCCC(O)=C1C2c1ccccc1 (centres undefined)
[6]
  IC50: > 69.5 µM (not active)

## CN(C)CCN(C(=O)c1cc(Cl)sc1Cl)c1nc2ccc(F)cc2s1
[2]
  EC50: < 0.1 µM (active)
[3]
  EC50: > 60 µM (not active)
cells
  EC50: 0.211 µM (active)

## CCOC(=O)C1CCN(Cc2c[nH]nc2-c2ccc(C)cc2)CC1
[7]
  EC50: > 20 µM (not active)
[8]
  EC50: > 20 µM (not active)

## O=C(Oc1c(CN2CCOCC2)cc(Cl)c2cccnc12)c1ccc(F)cc1
[9]
  EC50: > 160 µM (inconclusive)
[10]
  EC50: 1.54 µM (active)
[7]
  EC50: 4.28 µM (active)
[2]
  EC50: 4.69 µM (active)
[8]
  EC50: 12.7 µM (active)
[11]
  EC50: > 180 µM (inactive)
[3]
  EC50: > 60 µM (not active)
INS1
  AC50: 3.99 µM (active)
[12]
  EC50: > 160 µM (inactive)
[13]
  AC50: 5.7 µM (active)
[14]
  AC50: 9.1 µM (active)

## Cc1ccccc1-c1ccc(Nc2ccc(N3CCOCC3)cc2)nn1
[2]
  EC50: 1.42 µM (active)
Estrogen receptor beta
  IC50: < 0.023 µM (not active)
[6]
  IC50: 14.5 µM (not active)
[3]
  EC50: > 60 µM (not active)
[15]
  IC50: 79.6 µM (active)

## Cc1ccc(C(C#N)c2ccc3c(C(F)(F)F)cc(C(F)(F)F)nc3n2)cc1 (centres undefined)
[16]
  IC50: > 50 µM (not active)
[17]
  EC50: 6 µM (active)
[18]
  AC50: 1.78 µM (active)
Nonstructural protein 1
  IC50: 24.4 µM (active)
Protein skinhead-1
  IC50: > 100 µM (inactive)
